{"source": "patent US4649131A", "about": "“Growth hormone releasing factor analogs” (Hoffmann-La Roche Inc., priority 1985, dated 1987)", "key": {"[1]": {"system": "rat pituitary cells", "experiment": "stimulation of growth hormone production in rat pituitary cells in tissue culture (RIA for rat growth hormone)", "assay_type": "cell-based", "experimental": "Biological activity of the synthetic GRF(1-44)NH2 was identical to the natural GRF(1-44)NH2 which was isolated from a human pancreatic tumor of an individual suffering from acrommegaly (Salk Institute standard hGRF-NH2 (NL-A-10)). The assay for biological activity, which is based on the ability to stimulate production of growth hormone in rat pituitary cells in tissue culture, was performed in the following manner.\nPituitaries from 30-40 male Sprague-Dawley rats (175 g) were removed aseptically after decapitation. The anterior lobes were collected, washed 3 times in sterile Hepes buffer (0.025M) (pH 7.35) and dispersed at 37° C. in 20-30 ml Hepes buffer (pH 7.35) containing collagenase (4 mg per ml) and Dispase (Protease grade II, 2 mg per ml). After gentle 100-110-min. vortexing and trituration by Pasteur pipette, the dispersed cells were separated by centrifugation (150×g, 4 min) and re-suspended in Hepes buffer containing neuraminidase ([…]), and 200 µg/ml ethylenediaminetetraacetic acid (EDTA) disodium salt pH 7.35, for 10 min. The cells were washed twice with plating medium and plated on multiwell-plates (1.5×10^5 cells per ml) using the following defined medium: F-12/DMEM/BGJ (6:3:1) (Gibco: 430-1700/430-1600/320-2591) with 2 g BSA/1., 2.38 g Hepes/1.50 mg PSN antibiotic mixture (Gibco Laboratories), 10 mg/l transferrin (Sigma T2252) with 1.83 gm NazHCO3/l (Baker 3506). The medium in each well was supplemented either with a sample of the novel GRF peptide or natural GRF(1-44)-NH2 at concentrations ranging from 0.8 to 200 fmol. per ml. of medium. Control wells contained no supplement. Plating was done with this medium added with 2% fetal calf serum to ensure rapid fixation of the cells. On the fourth day the cells were washed twice with the defined medium without fetal calf serum. Finally 900 μl of defined medium was added to each well plus 100 μl of the same medium containing each individual treatment, in triplicate. After 4 hours of incubation the medium was collected and diluted as required to conduct radioimmunoassay (RIAs) for rat growth hormone. […]"}, "[2]": {"system": "release of growth hormone", "settings": "Rivier and Vale et al., Nature 300, 276-278 (1982); cited from earlier work"}}, "note": "No end group written: not given here."}
{"molecule": "CC[C@H](C)[C@H](NC(=O)[C@H](C)NC(=O)[C@H](CC(=O)O)NC(=O)[C@H](C)NC(=O)[C@@H](N)Cc1ccc(O)cc1)C(=O)N[C@@H](Cc1ccccc1)C(=O)N[C@H](C(=O)N[C@@H](CC(N)=O)C(=O)N[C@@H](CO)C(=O)N[C@@H](Cc1ccc(O)cc1)C(=O)N[C@@H](CCCNC(=N)N)C(=O)N[C@@H](CCCCN)C(=O)N[C@H](C(=O)N[C@@H](CC(C)C)C(=O)NCC(=O)N[C@@H](CCC(N)=O)C(=O)N[C@@H](CC(C)C)C(=O)N[C@@H](CO)C(=O)N[C@@H](C)C(=O)N[C@@H](CCCNC(=N)N)C(=O)N[C@@H](CCCCN)C(=O)N[C@@H](CC(C)C)C(=O)N[C@@H](CC(C)C)C(=O)N[C@@H](CCC(N)=O)C(=O)N[C@@H](CC(=O)O)C(=O)N[C@H](C(=O)N[C@@H](CCSC)C(=O)N[C@@H](CO)C(=O)N[C@@H](CCCNC(=N)N)C(=O)N[C@@H](CCC(N)=O)C(=O)N[C@@H](CCC(N)=O)C(=O)NCC(=O)N[C@@H](CCC(=O)O)C(=O)N[C@@H](CO)C(=O)N[C@@H](CC(N)=O)C(=O)N[C@@H](CCC(N)=O)C(=O)N[C@@H](CCC(=O)O)C(=O)N[C@@H](CCCNC(=N)N)C(=O)NCC(=O)N[C@@H](C)C(=O)N[C@@H](CCCNC(=N)N)C(=O)N[C@@H](C)C(=O)N[C@@H](CCCNC(=N)N)C(=O)N[C@@H](CC(C)C)C(N)=O)[C@@H](C)CC)C(C)C)[C@@H](C)O", "note": "[synthetic GRF(1-44)NH2, GRF(1-44)-NH2]", "values": [{"measurement": "biological activity compared with natural GRF(1-44)NH2", "setting": "[1]; versus natural GRF(1-44)NH2 isolated from a human pancreatic tumor (Salk Institute standard NL-A-10)", "result": "identical"}]}
{"molecule": "YADAIFTNSYRKVLAQLSARKLLQDIMSR-NH2 [(Ala^15)GRF(1-29)NH2, [Ala^15]-hGRF(1-29)-NH2]", "values": [{"measurement": "potency compared to GRF(1-44)NH2", "setting": "[1]; relative to GRF(1-44)NH2, on a weight for weight basis, 4 hours of incubation", "result": 4.1, "unit": "times"}, {"measurement": "potency compared to GRF(1-29)NH2", "setting": "[1]; relative to unsubstituted shortened GRF(1-29)NH2, 4 hours of incubation", "result": 5.1, "unit": "times"}]}
{"molecule": "GRF(1-29)-NH2", "values": [{"measurement": "intrinsic activity and potency in vitro", "setting": "[2]", "result": "full intrinsic activity and potency"}]}
